Key:
[1] = rat
Experimental: Male Sprague Dawley rats weighing 200-250 grams were dosed via oral gavage with 4 meq. […] Blood and brain were collected and lithium was measured using atomic absorption spectroscopy (AAS).
Male Sprague Dawley rats weighing 200-250 grams were purchased from Harlan (Harlan Sprague Dawley Inc., Indianapolis, Ind.). […] The rats were allowed to acclimate for a period of one week before any experiments are carried out. […] They were allowed free access to food and water throughout the experiment. […] Animals in each treatment group were euthanized at 2, 24, 48, and 72 hours (n=3 per time point per lithium salt) and blood was collected by cardiac puncture and carefully perfused with a pressure controlled pump to maintain microvasculature integrity before removing brain tissue. Blood was centrifuged at 1600×g at room temperature for 10 minutes and plasma was separated. A 500 mL aliquot was diluted 10 fold in a 5% TCA and 10% isopropyl alcohol (IPA) solution, vortexed and allowed to sit for 10 minutes in order to precipitate proteins. These aliquots were centrifuged at 3000×g for 30 minutes and the supernatant was transferred to clean tubes prior to measuring lithium content using atomic absorption spectroscopy (AAS). Brains were rinsed with PBS, weighed, and an equal volume of concentrated HNO3 was added. The brains were heated in this nitric acid solution for 1 hour, allowed to cool to room temperature, then centrifuged at 3000×g for 1 hour. The supernatant was removed and diluted 10 fold in 10% IPA prior to measuring lithium content using AAS (Shimadzu AA-6200). Peak height measurements were carried out referring to values obtained for standards of known concentrations. […] Two tailed t-tests were used to assess the statistical significance at each time point for the pharmacokinetic curves. The criterion for rejection of the null hypothesis was P<0.05.

[2] = rat, same protocol; previously reported [7]; peaks rapidly; cited from earlier work

| SMILES | AUC(0-72) ([1]; brain lithium, 0-72 h, oral gavage 4 meq. kg^−1 elemental lithium, mean±SEM) [µg/g] | brain lithium exposure compared with other lithium salts (e.g. lithium lactate) ([1]; brain, oral) | plasma lithium exposure compared with other lithium salts (e.g. lithium lactate) ([1]; plasma, oral) | time to elimination of lithium [2] [h] |
| --- | --- | --- | --- | --- |
| O=C([O-])c1ccccc1O.[Li+] [Lithium Salicylate, Lithium salicylate] | 153.1 ± 7.66 | better brain exposure | comparatively lower plasma lithium exposure |  |
| O=C([O-])[O-].[Li+].[Li+] [lithium carbonate] |  |  |  | ≤ 48 |

Reference: patent US9662351B2, “Plasma and brain pharmacokinetics of previously unexplored lithium salts” (University of South Florida, priority 2014, dated 2017)
